From patent US20140221283A1 (Indiana University Research and Technology Corporation, priority 2011, published 2014)
*1 amine or outer side, *2 acyl side, *3 side chain or, on linkers, in order; H or OH if unused. Where a SMILES comes first, the peptide text is derived from it. Side-chain parts run from the residue outwards. [ ]: non-standard residue; d: D form. The star is where a group is joined. γGlu = O=C(O)[C@H](CCC(=O)[*:2])N[*:1]; Palmitoyl = CCCCCCCCCCCCCCCC(=O)*; Aib = CC(C)(N)C(=O)O

Experiments:
[1] = body weight of diet-induced obese (DIO) mice dosed daily for nine days (Example 7); type: in vivo; settings: Day 9
Procedure: (§1) Mice were administered a vehicle control or a dose of a peptide daily for nine days. The peptides tested in this study included a peptide of SEQ ID NO: 12, a peptide of SEQ ID NO: 17, a peptide of SEQ ID NO: 18, and a peptide of SEQ ID NO: 19. Doses of each peptide were varied—each of the peptides of SEQ ID NO: 12, 17, and 19 was administered at a dose of either 3 nmol/kg or 9 nmol/kg, while the peptide of SEQ ID NO: 18 was administered at a dose of 1 nmol/kg, 3 nmol/kg, or 9 nmol/kg. Data are expressed as mean±SEM.

[2] = target: T1, human GCGR (Homo sapiens, UniProt P47871); experiment: cAMP production in CHO-K1 cells stably expressing human GCGR, DiscoveRx Hithunter cAMP XS+ (Example 4); type: cell-based; settings: procedure of Example 4
T1 construct: host or cells: CHO-K1
Procedure: (§2) The in vitro agonist potencies of the peptide of SEQ ID NO. 17 were determined using Chinese Hamster Ovary cells (CHO-K1) stably expressing human GLP-1R, GCGR or GIPR. The GLP-1R and GCGR stable cell line isogenic pools were generated by Invitrogen using their Jump-In™ targeted integration technology, whereas the stable CHO/GIPR lines were generated through classic cloning and transfection techniques (random integration) with limited dilution for selection of clones. The peptides were tested in vitro for their relative abilities to stimulate cAMP production in the various cell lines using the DiscoveRx Hithunter™ cAMP XS+ assay kit (cat#90-0075L) as per kit instructions.

[3] = target: human GLP-1R (Homo sapiens, UniProt P43220); experiment: cAMP production in CHO-K1 cells stably expressing human GLP-1R, DiscoveRx Hithunter cAMP XS+ (Example 4); type: cell-based; set-up: host or cells: CHO-K1; settings: CHO-K1 stably expressing human GLP-1R, procedure of Example 4
Procedure: as §2

[4] = Meal Tolerance Test (MTT) in diabetic rhesus monkeys treated for 10 days (Example 9); type: in vivo; settings: 1 μg/kg s.c. for 10 days
Procedure: (§3) The in vivo effects of a peptide of the invention were tested in diabetic rhesus monkeys (n=7) that were aged 16-26 years and having an average body weight of […]. Diabetic rhesus monkeys (n=7) that were aged 16-26 years with an average body weight of […] were administered a vehicle control, Liraglutide at a dose of 10 μg/kg s.c. or a peptide of SEQ ID NO: 17 at a dose of 1 μg/kg s.c. for 10 days. At the end of each treatment, fasting blood glucose (FBG) was measured first followed by a Meal Tolerance Test (MTT) to assess glucose tolerance. […] Data are expressed in FIG. 4 as mean±SEM. *P<0.05 versus vehicle.

[5] = body weight of obese rhesus monkeys dosed daily for 21 days (Example 8); type: in vivo
Procedure: (§4) The in vivo effects of a peptide of the invention were confirmed in obese rhesus monkeys by administering daily for 21 days a vehicle control, a commercially available product (Liraglutide), a peptide of SEQ ID NO: 20, or a peptide of SEQ ID NO: 17. […] Body weight and food intake were measured.

[6] = target: T2, human GIPR (Homo sapiens, UniProt P48546); experiment: cAMP production in CHO-K1 cells stably expressing human GIPR, DiscoveRx Hithunter cAMP XS+ (Example 4); type: cell-based; settings: procedure of Example 4, read-out: EC50 (nM) at GIP receptor
T2 construct: expressed in transfected cells; host or cells: CHO-K1
T2 sequence (P48546 22-466): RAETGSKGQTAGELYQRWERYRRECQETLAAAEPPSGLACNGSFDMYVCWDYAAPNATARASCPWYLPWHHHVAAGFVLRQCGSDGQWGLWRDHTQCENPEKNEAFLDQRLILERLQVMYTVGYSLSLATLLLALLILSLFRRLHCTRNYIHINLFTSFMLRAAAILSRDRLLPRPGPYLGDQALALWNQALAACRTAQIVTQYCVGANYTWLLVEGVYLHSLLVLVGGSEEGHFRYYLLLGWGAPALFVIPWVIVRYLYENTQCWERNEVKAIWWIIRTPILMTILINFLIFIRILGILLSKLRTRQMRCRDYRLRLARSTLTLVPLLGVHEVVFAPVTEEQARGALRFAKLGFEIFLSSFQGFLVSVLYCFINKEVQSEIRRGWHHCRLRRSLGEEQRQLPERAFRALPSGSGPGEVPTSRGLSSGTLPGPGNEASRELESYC
Procedure: as §2

[7] = food intake of obese rhesus monkeys dosed daily for 21 days (Example 8); type: in vivo; settings: 3 μg/kg s.c. daily for 21 days
Procedure: as §4

[8] = fasting blood glucose (FBG) of diabetic rhesus monkeys treated for 10 days (Example 9); type: in vivo; settings: 1 μg/kg s.c. for 10 days
Procedure: as §3

[9] = ambient glucose levels of DIO mice dosed daily for nine days (Example 7); type: in vivo
Procedure: as §1
In addition to cumulative body weight change, ambient glucose levels of the DIO mice were measured.

Chain of human GLP-1R (P43220 24-463): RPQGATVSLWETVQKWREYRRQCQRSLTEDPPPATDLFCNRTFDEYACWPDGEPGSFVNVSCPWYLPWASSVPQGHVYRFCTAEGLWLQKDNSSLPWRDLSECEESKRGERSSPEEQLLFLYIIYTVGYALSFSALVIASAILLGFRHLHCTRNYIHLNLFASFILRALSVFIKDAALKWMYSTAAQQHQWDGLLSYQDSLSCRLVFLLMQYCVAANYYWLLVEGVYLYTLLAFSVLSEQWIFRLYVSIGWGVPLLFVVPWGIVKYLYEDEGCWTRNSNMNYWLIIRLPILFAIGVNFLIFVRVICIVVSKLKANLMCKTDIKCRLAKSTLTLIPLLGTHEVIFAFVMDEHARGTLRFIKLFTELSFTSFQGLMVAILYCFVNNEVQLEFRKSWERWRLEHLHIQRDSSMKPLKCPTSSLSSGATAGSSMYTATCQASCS
T1 sequence (P47871 26-477): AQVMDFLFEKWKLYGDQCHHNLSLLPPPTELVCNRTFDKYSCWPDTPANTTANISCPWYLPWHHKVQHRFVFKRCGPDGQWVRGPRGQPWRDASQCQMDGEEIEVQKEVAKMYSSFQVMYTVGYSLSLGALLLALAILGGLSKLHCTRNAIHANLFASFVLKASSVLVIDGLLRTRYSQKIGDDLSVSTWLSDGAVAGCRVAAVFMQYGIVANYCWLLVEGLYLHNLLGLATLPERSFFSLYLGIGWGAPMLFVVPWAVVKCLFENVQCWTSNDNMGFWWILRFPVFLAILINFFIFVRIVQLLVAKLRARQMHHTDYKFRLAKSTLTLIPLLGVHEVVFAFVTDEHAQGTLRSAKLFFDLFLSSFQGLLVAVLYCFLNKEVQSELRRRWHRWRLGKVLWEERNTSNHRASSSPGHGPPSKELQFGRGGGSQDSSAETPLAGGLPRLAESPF

- EC50 [2]: 0.11 nM
- EC50 [3]: 0.075 nM
- EC50 [6]: > 2000 nM
Compound: CCCCCCCCCCCCCCCC(=O)N[C@@H](CCC(=O)N[C@@H](CCC(=O)NCCCC[C@H](NC(=O)[C@H](CC(=O)O)NC(=O)[C@H](CO)NC(=O)[C@@H](NC(=O)[C@H](Cc1ccccc1)NC(=O)[C@@H](NC(=O)CNC(=O)[C@H](CCC(N)=O)NC(=O)C(C)(C)NC(=O)[C@@H](N)Cc1c[nH]cn1)[C@@H](C)O)[C@@H](C)O)C(=O)N[C@@H](CO)C(=O)N[C@@H](CCCCN)C(=O)N[C@@H](Cc1ccc(O)cc1)C(=O)N[C@@H](CC(C)C)C(=O)N[C@@H](CC(=O)O)C(=O)NC(C)(C)C(=O)N[C@@H](CCCNC(=N)N)C(=O)N[C@@H](C)C(=O)N[C@@H](C)C(=O)N[C@@H](CCC(N)=O)C(=O)N[C@@H](CC(=O)O)C(=O)N[C@@H](Cc1ccccc1)C(=O)N[C@H](C(=O)N[C@@H](CCC(N)=O)C(=O)N[C@@H](Cc1c[nH]c2ccccc12)C(=O)N[C@@H](CC(C)C)C(=O)N[C@@H](CCSC)C(=O)N[C@@H](CC(N)=O)C(=O)N[C@H](C(=O)N[C@@H](CCCCN)C(=O)N[C@@H](CCC(N)=O)C(=O)O)[C@@H](C)O)C(C)C)C(=O)O)C(=O)O [SEQ ID NO: 17] (H-H[Aib]QGTFTSDK([γGlu-γGlu-Palmitoyl])SKYLD[Aib]RAAQDFVQWLMNTKQ-OH; N-terminus assumed)
- body weight reduction ([1]; 3 nmol/kg daily): ~9.6%
- body weight loss ([1]; 9 nmol/kg daily): ~35.5%
- glucose tolerance during MTT as compared to vehicle [4]: improved glucose tolerance
- weight loss vs. baseline and vehicle ([5]; 3 μg/kg s.c. daily for 21 days): -1.2 kg
- body weight following a one week wash-out ([5]; Day 28, after 21 days at 3 μg/kg s.c.): regained much of the weight that was lost
- food intake, % change vs. baseline [7]: −25.7%
- FBG change vs. vehicle [8]: −25%
- fasting blood glucose (FBG) ([8]; mean±SEM): 120 ± 20 mg/dL
- reduction in glucose levels compared to vehicle control mice ([9]; 3 nmol/kg daily, Day 7): ~28%
- decrease in glucose levels compared to vehicle control mice ([9]; 3 nmol/kg daily, Day 9): ~19%
- decrease in glucose levels compared to vehicle control mice ([9]; 9 nmol/kg daily, Day 4): ~48%
- decrease in glucose levels compared to vehicle control mice ([9]; 9 nmol/kg daily, Day 7): ~48%
- decrease in glucose levels compared to vehicle control mice ([9]; 9 nmol/kg daily, Day 9): ~45%
